Test results published in ChEMBL document CHEMBL1201862, “PubChem BioAssay data set” (2004).
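48-hour exposure; five concentrations; linearly interpolated endpoints. The concentration for 50% growth inhibition is given as GI50.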 Calls of active or inactive are those of the source. Rule as the data show it: active = GI50 up to about 1.1 µM and inactive = higher. Peptide text beside a SMILES is read from it. * marks the point of attachment. Cbz = O=C(OCc1ccccc1)*

Legend:
Experiment in all cases: NCI-60 cell line screen, 48 h
[1] = system: CAKI-1
[2] = system: COLO 205
[3] = system: EKVX
[4] = system: HCC 2998
[5] = system: HCT-15
[6] = system: HOP-62
[7] = system: HOP-92
[8] = system: HT-29
[9] = system: IGROV-1
[10] = system: KM12
[11] = system: M14
[12] = system: MDA-N
[13] = system: OVCAR-8
[14] = system: RPMI-8226
[15] = system: RXF 393
[16] = system: SF-295
[17] = system: SK-MEL-2
[18] = system: SK-MEL-5
[19] = system: T47D
[20] = system: TK-10

Compound	GI50 [1]	GI50 [2]	GI50 [3]	GI50 [4]	GI50 [5]	GI50 [6]	GI50 [7]	GI50 [8]	GI50 [9]	GI50 [10]	GI50 [11]	GI50 [12]	GI50 [13]	GI50 [14]	GI50 [15]	GI50 [16]	GI50 [17]	GI50 [18]	GI50 [19]	GI50 [20]
NCCNCCCNC(=O)c1cc(-c2ccccc2)nc2ccccc12	52.4 µM (inactive)	16.2 µM (inactive)	> 100 µM (inactive)	19.6 µM (inactive)	> 100 µM	27.2 µM (inactive)	13.7 µM (inactive)	36.2 µM (inactive)	> 100 µM (inactive)	33.1 µM (inactive)	15.1 µM (inactive)	25.5 µM (inactive)	85.5 µM (inactive)	54 µM (inactive)	38.8 µM (inactive)	28.6 µM (inactive)	21 µM (inactive)	15.6 µM (inactive)	38.5 µM (inactive)	62.7 µM (inactive)
COc1ccccc1/C=C/c1cnccn1	> 10 µM (inactive)	> 10 µM (inactive)	> 10 µM (inactive)	> 10 µM (inactive)	> 10 µM	> 10 µM (inactive)	> 10 µM (inactive)	> 10 µM (inactive)	> 10 µM (inactive)	> 10 µM (inactive)	> 10 µM (inactive)	> 10 µM (inactive)	> 10 µM (inactive)	> 10 µM (inactive)	> 10 µM (inactive)	> 10 µM (inactive)	> 10 µM (inactive)	> 10 µM (inactive)	> 10 µM (inactive)	> 10 µM (inactive)
COC(=O)C12C3C4C1C1C2C3C41C(=O)NC(C)(C)CC(=O)O (stereo not given)	> 100 µM (inactive)	> 100 µM (inactive)	> 100 µM (inactive)	> 100 µM (inactive)	> 100 µM	> 100 µM (inactive)	> 100 µM (inactive)	> 100 µM (inactive)	> 100 µM (inactive)	> 100 µM (inactive)	> 100 µM (inactive)	> 100 µM (inactive)	> 100 µM (inactive)	> 100 µM (inactive)	> 100 µM (inactive)	> 100 µM (inactive)	> 100 µM (inactive)	> 100 µM (inactive)	> 100 µM (inactive)	> 100 µM (inactive)
CC(CO)[C@H]1OC(=O)C=C2[C@@]13O[C@@H]3[C@H]1OC(=O)[C@@]3(C)[C@H]4O[C@H]4C[C@@]2(C)[C@@H]13 (stereo not given in full)	1.84 µM (inactive)	1.58 µM (inactive)	2.64 µM (inactive)	1.65 µM (inactive)	0.914 µM	2.94 µM (inactive)	2.71 µM (inactive)	1.19 µM (inactive)	1.5 µM (inactive)	1.19 µM (inactive)	1.19 µM (inactive)	1.32 µM (inactive)	2.25 µM (inactive)	2.22 µM (inactive)	1.62 µM (inactive)	1.36 µM (inactive)	2.07 µM (inactive)	0.8 µM (active)	2.92 µM (inactive)	2.07 µM (inactive)
COc1ccc(C(OCC2OC(n3cc(C)c(=O)[nH]c3=O)CC2n2cc(Cn3cc(I)c(=O)[nH]c3=O)nn2)(c2ccccc2)c2ccccc2)cc1 (stereo not given)	> 100 µM (inactive)	> 100 µM (inactive)	> 100 µM (inactive)	> 100 µM (inactive)	> 100 µM	> 100 µM (inactive)	> 100 µM (inactive)	> 100 µM (inactive)	> 100 µM (inactive)	14.2 µM (inactive)	> 100 µM (inactive)	> 100 µM (inactive)	> 100 µM (inactive)	15.2 µM (inactive)	> 100 µM (inactive)	> 100 µM (inactive)	> 100 µM (inactive)	> 100 µM (inactive)	> 100 µM (inactive)	> 100 µM (inactive)
C1CSCCCSCCCSCCCSCCCSC1	17.7 µM (inactive)	13.1 µM (inactive)	24.5 µM (inactive)	38 µM (inactive)	40.6 µM	47.4 µM (inactive)	24.1 µM (inactive)	22.9 µM (inactive)	31.1 µM (inactive)	25.4 µM (inactive)	29.7 µM (inactive)	32.3 µM (inactive)	29 µM (inactive)	5.32 µM (inactive)	42.9 µM (inactive)	22.2 µM (inactive)	20.7 µM (inactive)	14.2 µM (inactive)	17.2 µM (inactive)	37.2 µM (inactive)
Cc1cccc2sc(NC(=O)NS(=O)(=O)n3cnc4ccccc43)nc12	34.7 µM (inactive)	27.8 µM (inactive)	1.67 µM (inactive)	15.6 µM (inactive)	25.9 µM	34.7 µM (inactive)	15.3 µM (inactive)	33.9 µM (inactive)	16.5 µM (inactive)	30.4 µM (inactive)	31.3 µM (inactive)	31.3 µM (inactive)	22.5 µM (inactive)	21.5 µM (inactive)	15.9 µM (inactive)	20.9 µM (inactive)	18.7 µM (inactive)	21.7 µM (inactive)	15.1 µM (inactive)	35.6 µM (inactive)
CC#CCCN(CC#N)Cc1ccccc1	> 100 µM (inactive)	> 100 µM (inactive)	> 100 µM (inactive)	> 100 µM (inactive)	> 100 µM	> 100 µM (inactive)	> 100 µM (inactive)	> 100 µM (inactive)	> 100 µM (inactive)	> 100 µM (inactive)	> 100 µM (inactive)	> 100 µM (inactive)	> 100 µM (inactive)	> 100 µM (inactive)	> 100 µM (inactive)	> 100 µM (inactive)	> 100 µM (inactive)	> 100 µM (inactive)	> 100 µM (inactive)	> 100 µM (inactive)
O=C(O)CCC(NC(=O)OCc1ccccc1)C(=O)NC(Cc1c[nH]cn1)C(=O)O (stereo not drawn) (Cbz-Glu-His-OH; configuration not given here)	> 100 µM (inactive)	> 100 µM (inactive)	> 100 µM (inactive)	> 100 µM (inactive)	> 100 µM	> 100 µM (inactive)	> 100 µM (inactive)	> 100 µM (inactive)	> 100 µM (inactive)	> 100 µM (inactive)	> 100 µM (inactive)	> 100 µM (inactive)	> 100 µM (inactive)	> 100 µM (inactive)	> 100 µM (inactive)	> 100 µM (inactive)	> 100 µM (inactive)	> 100 µM (inactive)	> 100 µM (inactive)	> 100 µM (inactive)
Cc1ccc(-c2nnc(-c3ccc4ccccc4c3)o2)cc1	5.19 µM (inactive)	> 100 µM (inactive)	40.2 µM (inactive)	> 100 µM (inactive)	> 96.8 µM	18 µM (inactive)	> 51.6 µM (inactive)	> 87.9 µM (inactive)	> 91.2 µM (inactive)	> 100 µM (inactive)	12.3 µM (inactive)	17.5 µM (inactive)	12.4 µM (inactive)	6.78 µM (inactive)	5.87 µM (inactive)	36.2 µM (inactive)	2.92 µM (inactive)	> 96.2 µM (inactive)	19.2 µM (inactive)	7.94 µM (inactive)
